In patent US20190054051A1, “DOPA Formulations for Treatments of Parkinson's Disease” (The Board of Trustees of the Leland Stanford Junior …, priority 2017, published 2019):

Assays:
[1] = test system: 6-OHDA lesioned mice; test: Cylinder test, contralateral paw usage (akinesia); format: in vivo; settings: single dose equivalent to 5 mg/Kg DOPA; DOPA = L-DOPA/Benserazide 5 and 10 mg/Kg s/c
[2] = test system: pERK, ChAT and H2R; test: Immunohistochemical co-localization of pERK, ChAT and H2R in striatum; format: in vivo, mice; settings: lesioned striatum
Description: (§1) Immunohistochemical analysis was performed with commonly known procedures. Mice were transcardially perfused with ice-cold 4% paraformaldehyde in PBS 45 minutes after challenge with L-DOPA or DOPA-ranitidine formulations. The brain was dissected out, post-fixed in 4% PFA overnight at 4° C., and cryoprotected using 30% sucrose in PBS. Cryoprotected brains were stored at -80° C. For TH immunostaining 30 μm coronal sections were taken around both CPu and substantia nigra, to examine dopaminergic denervation at the level of striatum and neuronal cell body loss at the level of substantia nigra. For pERK, ChAT, FoxP and AFos B expression, only coronal sections at the level of striatum was used. Free-floating coronal sections were blocked in blocking buffer (PBS with 2% BSA, 0.3% TritonX-100) for 1 hr at room temperature with gentle rocking. Sections were then transferred to incubation solution (PBS with 1% BSA, 0.03% TritonX-100) and the respective primary antibody as shown in table 1 and incubated at 4° C. for 24-48 hrs with gentle shaking. The sections were mounted with fluorescein or DAPI containing mounting media and serial z stack images were taken using Zeiss laser scanning confocal microscope LSM 800 at Stanford Cell Sciences Imaging facility. […]

[3] = test system: ChAT; test: ChAT immunoreactivity (fluorescence intensity) in cholinergic interneurons; design: species or system mice; settings: mouse, in vivo
Description: as §1, with “−80°” for “-80°”

## N[C@@H](Cc1ccc(O)c(O)c1)C(=O)O [L-DOPA, L-3,4-dihydroxyphenylalanine]
[1]
  contralateral paw usage compared to saline treatment: significantly increased contralateral paw usage
[2]
  triple labeling of pERK, ChAT and H2R: Occasional triple labeling
[3]
  ChAT immunoreactivity (FI), lesioned side versus intact side: slightly lower on the lesioned side than the intact side
